The results in this text go back to paper PMC3602187, “From Design to Screening: A New Antimicrobial Peptide Discovery Pipeline” (PLoS ONE, 2013).

This assay deals with Listeria innocua 33090. Briefly: colony overlay assay of peptide-secreting E. coli clones (library screening and re-test). It is filed as cell-based. Set-up: key: higher activity group (H); equal activity group (E); lower activity group (L). The following applies: library screening; selected colonies pooled by zone size; peptides identified by 454 sequencing, full-length sequences with minimum 20 reads. The method, then:
For the in vivo production of AMPs, we have employed an E. coli expression system that relies on periplasmic-expression of recombinant peptides in a host cell that lacks the lpo membrane protein, thus releasing the peptides present in the periplasmic space outside the cells. When the producer cells are grown into colonies on a solid substrate, it leads to accumulation of the recombinant peptides around the colony and allows for easy library screening. The screening assay used in this study was a modified version of the standard agar diffusion method as previously described. Library-transformed E. coli colonies are overlaid with a tester strain and incubated overnight to allow for peptide expression and tester strain growth. Next day, the plates are inspected for the formation of clear growth inhibition zones around E. coli colonies, which is an indication of active AMP production by the host colony.
For the construction of Pln-423 mutant library in E. coli, the expression system that consists of a periplasmic-leaky E. coli strain JE5505 and the expression plasmid pFLAG-CTS was employed for direct screening of peptide activities. It should be noted here that this plasmid contains ompA secretion signal sequence and cleavage of this sequence results in a serine residue at the N-terminal of all mature peptides. A total of 1.0×10^5 colonies, approximately 8-fold coverage of the library, were screened against Listeria innocua 33090 in five separate screening experiments. L. innocua was previously deemed as a suitable indicator for pathogenic L. monocytogenes displaying similar bacteriocin sensitivity, therefore it was used as a surrogate strain throughout this study. The selection process involved two criteria; 1) the size of the each inhibition zone was compared to that of wild-type Pln-423 as a correlation to anti-listerial activity level, 2) when several colonies formed inhibition zones that are very similar in size and character, only a few from each group were selected. The colonies were pooled into three groups based on their activities, giving 43 clones in a higher activity group (H), 81 clones in an equal activity group (E), and 241 clones in a lower activity group (L). Their plasmids were extracted from each activity group and analyzed by both Sanger and 454 high-throughput sequencing to identify peptide sequences.
These clones were also re-tested by colony overlay assay to compare their activities to wild-type Pln-423 based on the size of the inhibition zone around each clone (Figure 2-A). Based on this assay, all ten plantaricin mutants formed larger inhibition zones (10.3±0.5 to 11.4±0.3 mm zone diameter) compared to wild-type Pln-423 (6.2±0.2 mm) against L. innocua 33090. Out of those ten, three clones have a single mutation and […] clones have two mutations and the remaining single clone has three mutations. […] Positions like Ser23, Ser27, His28, and Lys36 were commonly mutated with similar amino acids indicating their potential role on higher peptide activity.
The screening method used in this study was a modified version of the standard colony overlay method as previously described. All the chemicals and growth media supplements were obtained from either Sigma-Aldrich or Fisher Scientific unless otherwise stated. Transformed E. coli JE5505 cells were diluted to 3000–5000 cfu (determined empirically prior to screening by plating serial dilutions of E. coli suspensions of a known absorbance and counting the colonies after incubation) in 25 ml LB soft agar (0.8%, 45°C) per screening plate and poured into 150 mm petri dishes. Once the media was solidified, they were overlaid with 10 ml LB soft agar (45°C) and incubated at 37°C for 24 h for host-colony formation. Next day, these plates were re-overlaid with 10 ml TSB soft agar containing 1 mM IPTG and the indicator strain Listeria innocua ATCC 33090 (diluted to OD600 = 0.03). […]
As to “KNYGNGVTCGKHSCSVNWGQAFSCSVEHLANFGHAKC* [GROUP E-UM-10]”, the “activity group by size of inhibition zone compared to wild-type Pln-423” value was “E”. Take “KYYGNGVTCDKHSCSVNWGQAFKCSVDHLANFGHGKC* [GROUP H-UM-4]”: the “activity group by size of inhibition zone compared to wild-type Pln-423” value is given as “H”. With “KYYGNGVTCGKHSCRVNWAQAFSCTVSHLANFGHGKC* [GROUP L-UM-2]”, the “activity group by size of inhibition zone compared to wild-type Pln-423” value is listed as “L”. As for “KYYGNGVTCGKHSCSVNAGQAFSCAVSHLANFGHGKC* [Pep-2_497]”, the “activity group by size of inhibition zone compared to wild-type Pln-423” value is given as “E”.

Turning to “KYYGNGVTCGKHSCSVNWAQAFSCNVSHLANFGHGKC* [Pep-2_4793]”, the “activity group by size of inhibition zone compared to wild-type Pln-423” value is “L”. Regarding “KYYGNGVTCGKHSCSVNWAQAFSCSVSHLANFGHGHC* [Pep-2_1213]”, the “activity group by size of inhibition zone compared to wild-type Pln-423” value is “L and E”. Take “KYYGNGVTCGKHSCSVNWAQAFSCSVSHLANFGHGLC* [Pep-2_12029]”: the “activity group by size of inhibition zone compared to wild-type Pln-423” value is reported as “L”. The entry for “KYYGNGVTCGKHSCSVNWAQAFSCSVVHLANFGHGKC* [Pep-2_6197]” is “L”; for “KYYGNGVTCGKHSCSVNWAQALSCSVSHLANFGHGKC* [Pep-2_1132]” it is “L”.

As for “KYYGNGVTCGKHSCSVNWAQGFSCSVSHLANFGHGKC* [Pep-2_1127]”, the “activity group by size of inhibition zone compared to wild-type Pln-423” value is reported as “L”. As to “KYYGNGVTCGKHSCSVNWGAAFSCAVSHLANFGHGKC* [Pep-2_5015]”, the “activity group by size of inhibition zone compared to wild-type Pln-423” value is “L”. Then “KYYGNGVTCGKHSCSVNWGDAFSCSVAHLANFGHGKC* [Pep-2_1487]”, with “L”; and “KYYGNGVTCGKHSCSVNWGEAFSCAVSHLANFGHGKC* [Pep-2_5012]”, with “E”. For “KYYGNGVTCGKHSCSVNWGEAFSCSVHHLANFGHGKC* [Pep-2_5876]”, the “activity group by size of inhibition zone compared to wild-type Pln-423” value is reported as “E”. As for “KYYGNGVTCGKHSCSVNWGEAFSCSVSHLANYGHGKC* [GROUP E-UM-2]”, the “activity group by size of inhibition zone compared to wild-type Pln-423” value was “E”. For “KYYGNGVTCGKHSCSVNWGEAFVCSVSHLANFGHGKC* [Pep-2_3608]”, the “activity group by size of inhibition zone compared to wild-type Pln-423” value is on record as “E”. As for “KYYGNGVTCGKHSCSVNWGGAFSCSVSHLANFGHGWC* [Pep-2_12251]”, the “activity group by size of inhibition zone compared to wild-type Pln-423” value was “L”. Take “KYYGNGVTCGKHSCSVNWGGALSCSVSHLANFGHGKC* [Pep-2_1780]”: the “activity group by size of inhibition zone compared to wild-type Pln-423” value is on record as “L”. Then “KYYGNGVTCGKHSCSVNWGHAFSCSVSHLANFGHGHC* [Pep-2_11707]”, with “L”; and “KYYGNGVTCGKHSCSVNWGKAFSCGVSHLANFGHGKC* [Pep-2_1367]”, with “L”. Regarding “KYYGNGVTCGKHSCSVNWGKAFSCSVSMLANFGHGKC* [Pep-2_1384]”, the “activity group by size of inhibition zone compared to wild-type Pln-423” value was “L”. For the substance “KYYGNGVTCGKHSCSVNWGLAFSCSVSNLANFGHGKC* [Pep-2_6742]”, the “activity group by size of inhibition zone compared to wild-type Pln-423” value is reported as “L”. Take “KYYGNGVTCGKHSCSVNWGPAFSCSVSRLANFGHGKC* [Pep-2_6528]”: the “activity group by size of inhibition zone compared to wild-type Pln-423” value is recorded as “L”. For “KYYGNGVTCGKHSCSVNWGQACSCSVSHLANFGHGKC* [Pep-1_30]”, the “activity group by size of inhibition zone compared to wild-type Pln-423” value was “L”. On to “KYYGNGVTCGKHSCSVNWGQAFACSVSHLANFGFGKC* [GROUP L-UM-23]”, for which the “activity group by size of inhibition zone compared to wild-type Pln-423” value is reported as “L”. The entry for “KYYGNGVTCGKHSCSVNWGQAFACSVSHLANFGHGFC* [Pep-2_3808]” is “L and E”. Consider “KYYGNGVTCGKHSCSVNWGQAFACSVSHLANFGHGHC* [Pep-2_11729]”, for which the “activity group by size of inhibition zone compared to wild-type Pln-423” value is “L”. Take “KYYGNGVTCGKHSCSVNWGQAFACSVSHLANFGHGKC* [Pep-1_35]”: the “activity group by size of inhibition zone compared to wild-type Pln-423” value was “E”. Consider “KYYGNGVTCGKHSCSVNWGQAFACSVSHLANFGHGWC* [Pep-2_12269]”, for which the “activity group by size of inhibition zone compared to wild-type Pln-423” value is reported as “L”. As for “KYYGNGVTCGKHSCSVNWGQAFCCSVSHLANFGHGKC* [GROUP L-UM-17]”, the “activity group by size of inhibition zone compared to wild-type Pln-423” value is given as “L”. Consider “KYYGNGVTCGKHSCSVNWGQAFCCSVSHLANFGHGSC* [Pep-2_11946]”, for which the “activity group by size of inhibition zone compared to wild-type Pln-423” value was “L”. In the case of “KYYGNGVTCGKHSCSVNWGQAFDCSVSHLANFGHGKC* [GROUP E-UM-1]”, the “activity group by size of inhibition zone compared to wild-type Pln-423” value is recorded as “E”. Turning to “KYYGNGVTCGKHSCSVNWGQAFDCSVSHLANFGHGKC* [GROUP H-UM-1]”, the “activity group by size of inhibition zone compared to wild-type Pln-423” value is on record as “H”. Turning to “KYYGNGVTCGKHSCSVNWGQAFDCSVSHLANFGHGKC* [GROUP L-UM-4]”, the “activity group by size of inhibition zone compared to wild-type Pln-423” value is reported as “L”. For “KYYGNGVTCGKHSCSVNWGQAFECRVSHLANFGHGKC* [Pep-2_3415]”, the “activity group by size of inhibition zone compared to wild-type Pln-423” value was “L and H”.

“KYYGNGVTCGKHSCSVNWGQAFECSVDHLANFGHGKC* [Pep-2_3428]”: the “activity group by size of inhibition zone compared to wild-type Pln-423” value was “E”. Then “KYYGNGVTCGKHSCSVNWGQAFECSVSHIANFGHGKC* [Pep-2_3442]”, with “E and H”. “KYYGNGVTCGKHSCSVNWGQAFECSVSHLANFGHGKC* [Pep-1_32]”: the “activity group by size of inhibition zone compared to wild-type Pln-423” value is “L and H”. With “KYYGNGVTCGKHSCSVNWGQAFECSVSHLANFGHNKC* [Pep-2_3477]”, the “activity group by size of inhibition zone compared to wild-type Pln-423” value is recorded as “L”. The entry for “KYYGNGVTCGKHSCSVNWGQAFECSVSHLANFGMGKC* [Pep-2_10754]” is “E”; for “KYYGNGVTCGKHSCSVNWGQAFECSVSHLATFGHGKC* [Pep-2_3453]” it is “E”; for “KYYGNGVTCGKHSCSVNWGQAFECSVSRLANFGHGKC* [Pep-2_3433]” it is “E”. As to “KYYGNGVTCGKHSCSVNWGQAFECSVSWLANFGHGKC* [Pep-2_3438]”, the “activity group by size of inhibition zone compared to wild-type Pln-423” value is reported as “L”. As for “KYYGNGVTCGKHSCSVNWGQAFKCSVIHLANFGHGKC* [Pep-2_3322]”, the “activity group by size of inhibition zone compared to wild-type Pln-423” value is on record as “L”. Take “KYYGNGVTCGKHSCSVNWGQAFKCSVSLLANFGHGKC* [Pep-2_3328]”: the “activity group by size of inhibition zone compared to wild-type Pln-423” value is recorded as “L”. For the substance “KYYGNGVTCGKHSCSVNWGQAFMCSLSHLANFGHGKC* [GROUP L-UM-7]”, the “activity group by size of inhibition zone compared to wild-type Pln-423” value is reported as “L”. In the case of “KYYGNGVTCGKHSCSVNWGQAFMCSVEHLANFGHGKC* [Pep-2_6004]”, the “activity group by size of inhibition zone compared to wild-type Pln-423” value is reported as “L”. Turning to “KYYGNGVTCGKHSCSVNWGQAFNCSVENLANFGHGKC* [GROUP H-UM-3]”, the “activity group by size of inhibition zone compared to wild-type Pln-423” value is “H”. As for “KYYGNGVTCGKHSCSVNWGQAFSCAFSHLANFGHGKC* [Pep-2_5044]”, the “activity group by size of inhibition zone compared to wild-type Pln-423” value is “L”. Then “KYYGNGVTCGKHSCSVNWGQAFSCAVSALANFGHGKC* [Pep-2_5057]”, with “L”; and “KYYGNGVTCGKHSCSVNWGQAFSCAVSHLANFGHGKC* [Pep-1_47]”, with “L”; and “KYYGNGVTCGKHSCSVNWGQAFSCAVSHLANFGHHKC* [Pep-2_5095]”, with “L”. Then “KYYGNGVTCGKHSCSVNWGQAFSCAVSHLANFGVGKC* [Pep-2_5092]”, with “L”; and “KYYGNGVTCGKHSCSVNWGQAFSCAVSRLANFGHGKC* [Pep-2_5053]”, with “L”; and “KYYGNGVTCGKHSCSVNWGQAFSCCVSHLANFGHGKC* [GROUP L-UM-1]”, with “L”.
